From US20230357269A1 (LES LABORATOIRES SERVIER, priority 2020, published 2023) come the findings set out here.

Sequence of human recombinant LRRK2 protein (Q5S007 whole entry): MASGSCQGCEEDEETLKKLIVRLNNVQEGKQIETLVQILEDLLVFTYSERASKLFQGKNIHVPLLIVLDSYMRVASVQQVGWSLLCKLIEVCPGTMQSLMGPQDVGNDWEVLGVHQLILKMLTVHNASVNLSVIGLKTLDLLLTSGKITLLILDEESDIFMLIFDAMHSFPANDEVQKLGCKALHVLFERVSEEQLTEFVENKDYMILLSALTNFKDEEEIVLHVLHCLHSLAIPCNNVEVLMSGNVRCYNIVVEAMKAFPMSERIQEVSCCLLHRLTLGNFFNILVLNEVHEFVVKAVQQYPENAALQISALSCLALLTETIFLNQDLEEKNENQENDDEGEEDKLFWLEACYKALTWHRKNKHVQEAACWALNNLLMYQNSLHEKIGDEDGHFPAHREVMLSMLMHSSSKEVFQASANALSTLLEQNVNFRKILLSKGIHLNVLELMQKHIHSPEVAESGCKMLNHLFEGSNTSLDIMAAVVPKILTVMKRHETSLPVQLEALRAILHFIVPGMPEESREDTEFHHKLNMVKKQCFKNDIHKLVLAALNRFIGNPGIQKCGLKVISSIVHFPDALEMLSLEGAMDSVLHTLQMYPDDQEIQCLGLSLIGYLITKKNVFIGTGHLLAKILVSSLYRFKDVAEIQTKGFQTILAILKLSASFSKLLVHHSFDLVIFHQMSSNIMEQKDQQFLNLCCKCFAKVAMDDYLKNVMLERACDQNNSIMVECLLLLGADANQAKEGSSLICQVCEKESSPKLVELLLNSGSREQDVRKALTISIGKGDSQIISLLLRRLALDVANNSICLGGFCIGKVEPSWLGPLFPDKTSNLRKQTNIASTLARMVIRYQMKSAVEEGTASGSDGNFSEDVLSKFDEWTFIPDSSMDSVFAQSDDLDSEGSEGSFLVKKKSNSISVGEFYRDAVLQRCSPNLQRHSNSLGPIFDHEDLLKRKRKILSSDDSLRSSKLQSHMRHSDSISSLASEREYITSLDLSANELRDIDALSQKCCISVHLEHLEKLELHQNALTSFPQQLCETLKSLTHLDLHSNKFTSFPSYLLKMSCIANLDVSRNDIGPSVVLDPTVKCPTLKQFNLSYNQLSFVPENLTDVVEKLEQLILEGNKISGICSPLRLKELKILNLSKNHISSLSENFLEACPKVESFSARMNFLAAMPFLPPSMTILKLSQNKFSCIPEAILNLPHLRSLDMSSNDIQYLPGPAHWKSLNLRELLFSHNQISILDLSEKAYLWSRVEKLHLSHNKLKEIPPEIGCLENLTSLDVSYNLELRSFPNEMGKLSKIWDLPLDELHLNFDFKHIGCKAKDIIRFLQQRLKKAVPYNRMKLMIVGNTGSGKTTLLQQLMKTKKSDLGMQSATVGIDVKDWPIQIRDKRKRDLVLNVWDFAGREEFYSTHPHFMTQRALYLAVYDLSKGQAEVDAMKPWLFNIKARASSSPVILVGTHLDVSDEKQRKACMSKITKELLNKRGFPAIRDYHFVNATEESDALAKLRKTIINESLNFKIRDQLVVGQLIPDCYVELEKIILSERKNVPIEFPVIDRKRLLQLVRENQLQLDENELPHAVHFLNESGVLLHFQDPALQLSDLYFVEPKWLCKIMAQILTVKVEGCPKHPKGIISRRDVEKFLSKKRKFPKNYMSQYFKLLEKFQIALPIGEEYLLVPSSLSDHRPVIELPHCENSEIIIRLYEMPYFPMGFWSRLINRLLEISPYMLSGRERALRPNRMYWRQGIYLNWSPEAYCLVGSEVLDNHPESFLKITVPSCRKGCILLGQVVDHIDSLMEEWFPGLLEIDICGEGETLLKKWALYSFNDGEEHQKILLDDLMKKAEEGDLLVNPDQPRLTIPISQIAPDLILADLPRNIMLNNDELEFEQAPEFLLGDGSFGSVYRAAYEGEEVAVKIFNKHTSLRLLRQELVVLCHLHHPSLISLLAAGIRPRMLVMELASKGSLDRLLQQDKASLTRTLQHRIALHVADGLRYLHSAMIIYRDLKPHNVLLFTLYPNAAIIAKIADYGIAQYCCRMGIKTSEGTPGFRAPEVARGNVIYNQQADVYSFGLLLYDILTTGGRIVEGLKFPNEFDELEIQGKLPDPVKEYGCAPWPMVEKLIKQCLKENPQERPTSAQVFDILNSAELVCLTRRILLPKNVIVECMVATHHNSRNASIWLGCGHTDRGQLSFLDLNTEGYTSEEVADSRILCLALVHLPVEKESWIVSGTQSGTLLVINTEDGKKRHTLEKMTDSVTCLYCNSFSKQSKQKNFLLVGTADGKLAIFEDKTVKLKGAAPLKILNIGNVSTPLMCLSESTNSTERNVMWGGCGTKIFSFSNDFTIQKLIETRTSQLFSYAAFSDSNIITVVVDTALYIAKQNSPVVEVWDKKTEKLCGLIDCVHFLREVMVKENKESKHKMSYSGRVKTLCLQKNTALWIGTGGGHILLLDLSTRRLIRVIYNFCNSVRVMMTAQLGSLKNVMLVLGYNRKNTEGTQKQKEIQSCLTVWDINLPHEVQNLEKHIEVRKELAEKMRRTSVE

The target in this assay is human recombinant LRRK2 protein (Homo sapiens (Human), UniProt Q5S007). The experiment in a line: LRRK2 Kinase Activity Assay (ADP-Glo). Format: biochemical. The following applies: LRRK2 wt; LRRKtide peptide and ATP substrates; 1h-incubation at 37° C. Put shortly:
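Recombinant human LRRK2 acted on LRRKtide peptide and ATP for 1 h at 37 °C. ADP formed was detected by ADP-Glo luminescence (ATP depletion, then ADP-to-ATP conversion and luciferase). IC50s came from curve fits over 10 concentrations (N=2).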
On the technique in general: ADP-Glo turns the ADP formed in a reaction into a luminescent signal.
In the case of `CC1CCNC(=O)OCc2cccc(n2)-c2n[nH]c3ccc(cc23)O1` (stereo not drawn) [Example 92, 13-methyl-8,14-dioxa-10,19,20,23-tetraazatetracyclo[13.5.2.1^2,6.0^18,21]tricosa-1(20),2(23),3,5,15(22),16,18(21)-heptaen-9-one], the IC50 (as a rule, the concentration needed to halve the response being measured) is less than 10 nM.
As for `CC1CCNC(=O)OCc2cc(F)cc(c2)-c2n[nH]c3ccc(cc23)O1` (single isomer, unassigned) [Example 101, (13R) or (13S)-4-fluoro-13-methyl-8,14-dioxa-10,19,20-triazatetracyclo[13.5.2.1^2,6.0^18,21]tricosa-1(20),2(23),3,5,15(22),16,18(21)-heptaen-9-one], the figure is less than 10 nM; as for `CN1CCN(c2ccc3cc2COC(=O)NCCCOc2ccc4[nH]nc-3c4c2)CC1` [Example 49, 5-(4-methylpiperazin-1-yl)-8,14-dioxa-10,19,20-triazatetracyclo[13.5.2.1^2,6.0^18,21]tricosa-1(20),2,4,6(23),15,17,21-heptaen-9-one], 10 to 100 nM.
As for `O=C1NC[C@H](F)COc2ccc3[nH]nc(c3c2)-c2cccc(c2)CO1` [Example 169, (12S)-12-fluoro-8,14-dioxa-10,19,20-triazatetracyclo[13.5.2.1^2,6.0^18,21]tricosa-1(20),2(23),3,5,15(22),16,18(21)-heptaen-9-one], the IC50 is less than 10 nM.
With `C[C@@H]1CCNC(=O)OCc2nc(cn2C)-c2n[nH]c3ccc(cc23)O1` [Example 158, (12R)-4,12-dimethyl-7,13-dioxa-4,9,18,19,22-pentaazatetracyclo[12.5.2. 1^2,5.0^17,20]docosa-1(19),2,5(22),14(21),15,17(20)-hexaen-8-one], the IC50 fell in the range of 10 to 100 nM.
Turning to `O=C1OC2CN1CCCOc1ccc3[nH]nc(c3c1)-c1cc(F)cc2c1` (stereo not drawn) [Example 60, 4-fluoro-8,14-dioxa-10,19,20-triazapentacyclo[13.5.2.1^2,6.1^7,10.0^18,21]tetracosa-1(20),2(24),3,5,15(22),16,18(21)-heptaen-9-one], the IC50 is less than 10 nM.
The figure for `C[C@@H]1CCNC(=O)O[C@H](C)c2cccc(c2)-c2n[nH]c3ccc(cc23)O1` [Example 96, (7R,13R)-7,13-dimethyl-8,14-dioxa-10,19,20-triazatetracyclo[13.5.2.1^2,6.0^18,21]tricosa-1(20),2(23),3,5,15(22),16,18(21)-heptaen-9-one] is less than 10 nM.
As for `O=C1NCCCOc2ccc3[nH]nc(c3c2)-c2cc(cc(N3CCC(F)(F)CC3)c2)CO1` [Example 20, 4-(4,4-difluoropiperidin-1-yl)-8,14-dioxa-10,19,20-triazatetracyclo[13.5.2.1^2,6.0^18,21]tricosa-1(20),2,4,6(23),15,17,21-heptaen-9-one], the figure is less than 10 nM.
For the compound `O=C1NCCCOc2ccc3[nH]nc(c3c2)-c2ccn(c2)CCO1` [Example 99, 8,14-dioxa-5,10,19,20-tetraazatetracyclo[13.5.2.1^2,5.0^18,21]tricosa-1(20),2(23),3,15(22),16,18(21)-hexaen-9-one], the IC50 was less than 10 nM.
The figure for `O=C1NCCCOc2ccc3[nH]nc(c3c2)-c2nc(cs2)CCO1` [Example 135, 8,14-dioxa-3-thia-10,19,20,23-tetraazatetracyclo[13.5.2.1^2,5.0^18,21]tricosa-1(20),2(23),4,15,17,21-hexaen-9-one] is less than 10 nM; for `CN(c1cc2cc(c1)-c1n[nH]c3ccc(cc13)OCCCNC(=O)OC2)C1COC1` [Example 52, 4-[methyl(oxetan-3-yl)amino]-8,14-dioxa-10,19,20-triazatetracyclo[13.5.2.1^2,6.0^18,21]tricosa-1(20),2,4,6(23),15,17,21-heptaen-9-one] it is less than 10 nM; for `O=C1NCCCOc2ccc3[nH]nc(c3c2)-c2cc(F)c(F)c(c2)CO1` [Example 29, 4,5-difluoro-8,14-dioxa-10,19,20-triazatetracyclo[13.5.2.1^2,6.0^18,21]tricosa-1(20),2,4,6(23),15,17,21-heptaen-9-one] it is less than 10 nM.
The figure for `O=C1NCCCOc2ccc3[nH]nc(c3c2)-c2cc(cc(N3CC[C@H](O)C3)c2)CO1` [Example 59, 4-[(3S)-3-hydroxypyrrolidin-1-yl]-8,14-dioxa-10,19,20-triazatetracyclo[13.5.2.1^2,6.0^18,21]tricosa-1(20),2,4,6(23),15,17,21-heptaen-9-one] is less than 10 nM; for `O=C1NCC(F)(F)COc2ccc3[nH]nc(c3c2)-c2cnn(n2)CCO1` [Example 167, 12,12-difluoro-8,14-dioxa-4,5,10,19,20,23-hexaazatetracyclo[13.5.2.1^2,5.0^18,21]tricosa-1(20),2(23),3,15(22),16,18(21)-hexaen-9-one] it is less than 10 nM.
As for `N#CCc1cc2cc(c1)-c1n[nH]c3ccc(cc13)OCCCNC(=O)OC2` [Example 77, 2-{9-oxo-8,14-dioxa-10,19,20-triazatetracyclo[13.5.2.1^2,6.0^18,21]tricosa-1(20),2(23),3,5,15(22),16,18(21)-heptaen-4-yl}acetonitrile], the figure is less than 10 nM.
For the compound `O=C1NCCCOc2ccc3[nH]nc(c3c2)-c2cc(cc(N3CCCC3)c2)CO1` [Example 12, 4-(pyrrolidin-1-yl)-8,14-dioxa-10,19,20-triazatetracyclo[13.5.2.1^2,6.0^18,21]tricosa-1(20),2,4,6(23),15,17,21-heptaen-9-one], the IC50 was less than 10 nM.
As for `CC1CCCN1c1cc2cc(c1)-c1n[nH]c3ccc(cc13)OCCCNC(=O)OC2` (stereo not drawn) [Example 76, 4-(2-methylpyrrolidin-1-yl)-8,14-dioxa-10,19,20-triazatetracyclo[13.5.2.1^2,6.0^18,21]tricosa-1(20),2(23),3,5,15(22),16,18(21)-heptaen-9-one], the figure is less than 10 nM.
As for `O=C1NCCCOc2ccc3[nH]nc(c3c2)-c2cc(cc(N3CCOCC3=O)c2)CO1` [Example 73, 4-(3-oxomorpholin-4-yl)-8,14-dioxa-10,19,20-triazatetracyclo[13.5.2. 1^2,6.0^18,21]tricosa-1(20),2(23),3,5,15(22),16,18(21)-heptaen-9-one], the figure is less than 10 nM; as for `O=C1NCCCOc2ccc3[nH]nc(c3c2)C2=CN=C(CCO1)S2` [Example 149, 8,14-dioxa-23-thia-4,10,19,20-tetraazatetracyclo[13.5.2.1^2,5.0^18,21]tricosa-1(20),2,4,15(22),16,18(21)-hexaen-9-one], less than 10 nM.
The figure for `O=C1NCCCOc2ccc3[nH]nc(c3c2)-c2cc(cc(C3CC3)c2)CO1` [Example 48, 4-cyclopropyl-8,14-dioxa-10,19,20-triazatetracyclo[13.5.2.1^2,6.0^18,21]tricosa-1(20),2,4,6(23),15,17,21-heptaen-9-one] is less than 10 nM; for `O=C1NC[C@H](F)COc2ccc3[nH]nc(c3c2)-c2cncc(n2)CO1` [Example 171, (12S)-12-fluoro-8,14-dioxa-4,10,19,20,23-pentaazatetracyclo[13.5.2.1^2,6.0^18,21]tricosa-1(20),2(23),3,5,15,17,21-heptaen-9-one] it is less than 10 nM.
`O=C1NCCCOc2ccc3[nH]nc(c3c2)-c2cnn(c2)CCO1` [Example 51, 8,14-dioxa-4,5,10,19,20-pentaazatetracyclo[13.5.2.1^2,5.0^18,21]tricosa-1(20),2(23),3,15(22),16,18(21)-hexaen-9-one]: the half-maximal inhibitory concentration (IC50) was less than 10 nM.
Regarding `O=C1NCCCOc2ccc3[nH]nc(c3c2)-c2cnn(c2)C(C2CC2)CO1` (stereo not drawn) [Example 103, 6-cyclopropyl-8,14-dioxa-4,5,10,19,20-pentaazatetracyclo[13.5.2.1^2,5.0^18,21]tricosa-1(20),2(23),3,15(22),16,18(21)-hexaen-9-one], the IC50 is less than 10 nM.
As for `C[C@@H]1CCNC(=O)OCc2cccc(c2)-c2n[nH]c3cc(Cl)c(cc23)O1` [Example 138, (13R)-16-chloro-13-methyl-8,14-dioxa-10,19,20-triazatetracyclo[13.5.2.1^2,6.0^18,21]tricosa-1(20),2,4,6(23),15,17,21-heptaen-9-one], the IC50 is less than 10 nM.
The figure for `C[C@@H]1CCNC(=O)OCc2cncc(n2)-c2n[nH]c3ccc(cc23)O1` [Example 133, (13R)-13-methyl-8,14-dioxa-4,10,19,20,23-pentaazatetracyclo[13.5.2.1^2,6.0^18,21]tricosa-1(20),2,4,6(23),15,17,21-heptaen-9-one] is less than 10 nM.
Turning to `O=C1NC[C@@H](F)COc2ccc3[nH]nc(c3c2)-c2cccc(c2)CO1` [Example 168, (12R)-12-fluoro-8,14-dioxa-10,19,20-triazatetracyclo[13.5.2.1^2,6.0^8211]tricosa-1(20),2(23),3,5,15(22),16,18(21)-heptaen-9-one], the IC50 was less than 10 nM.
The figure for `O=C1NC[C@H](F)COc2ccc3[nH]nc(c3c2)-c2cnn(n2)CCO1` [Example 173, (12S)-12-fluoro-8,14-dioxa-4,5,10,19,20,23-hexaazatetracyclo[13.5.2.1^2,5.0^18,21]tricosa-1(20),2(23),3,15,17,21-hexaen-9-one] is less than 10 nM; for `CN1CCN(Cc2cc3cc(c2)-c2n[nH]c4ccc(cc24)OCCCNC(=O)OC3)CC1` [Example 44, 4-[(4-methylpiperazin-1-yl)methyl]-8,14-dioxa-10,19,20-triazatetracyclo[13.5.2.1^2,6.0^18,21]tricosa-1(20),2,4,6(23),15,17,21-heptaen-9-one] it is less than 10 nM; for `COc1cc2nc(c1)-c1n[nH]c3ccc(cc13)O[C@H](C)CCNC(=O)OC2` [Example 127, (13R)-4-methoxy-13-methyl-8,14-dioxa-10,19,20,23-tetraazatetracyclo[13.5.2.1^2,6.0^18,21]tricosa-1(20),2,4,6(23),15,17,21-heptaen-9-one] it is less than 10 nM.
As for `O=C1NCCCOc2ccc3[nH]nc(c3c2)-c2cc(cc(N3CCC(F)(F)C3)c2)CO1` [Example 21, 4-(3,3-difluoropyrrolidin-1-yl)-8,14-dioxa-10,19,20-triazatetracyclo[13.5.2.1^2,6.0^18,21]tricosa-1(20),2,4,6(23),15,17,21-heptaen-9-one], the figure is less than 10 nM.
